PubChem BioAssay (NCI)
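Tested at 5 concentrations; 48 h exposure; 96-well plates; endpoints linearly interpolated, else capped at highest concentration. At the GI50, growth is halved. TGI denotes the concentration required for complete inhibition of growth.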

test system: MDA-MB-468 breast; assay: growth of human tumour cells (NCI), 48 h

What does the source list for `Nc1ncc(-c2ccc3ncnc(N4CCc5cc(F)c(Cl)cc54)c3c2)cc1C=O`?
GI50: 306 nM; TGI: 1.63 µM

Which GI50 does the source give for `CN(C)C/C=C/C(=O)Nc1ccc(C(=O)Nc2cccc(Nc3ncc(Cl)c(-c4c[nH]c5ccccc45)n3)c2)cc1` here?
The GI50 was 18 nM.

What about the TGI of the same molecule?
The TGI was 0.043 µM.

Which GI50 does the source give for `CCN(CC)CCOc1ccc(/C(=C(\C)Cc2ccc(OC)cc2)c2ccc(O)cc2)cc1` here?
The GI50 was 1540 nM.

What about the TGI of the same molecule?
Its TGI is 3.05 µM.

For `COc1ccc(-c2cc(-c3ccc(Cl)cc3)nc(SCCCC(=O)NO)n2)cc1OC`, which GI50 is on record?
The GI50 was 1170 nM.

And the TGI?
Its TGI is 4.27 µM.

What does the source list for `CC[C@]1(O)CC2CN(CCc3c([nH]c4ccccc34)C(C(=O)OC)(c3cc4c(cc3OC)N(C=O)[C@H]3[C@@](O)(C(=O)OC)[C@H](OC(C)=O)[C@]5(CC)[C@@H]6C[C@@H]6CN6CC[C@]43[C@@H]65)C2)C1` (some centres undefined)?
GI50: < 3.25 nM; TGI: < 0.00325 µM

How did the GI50 turn out when `Cc1ncnc2c1ccn2[C@@H]1C[C@H](Oc2cc(C(F)F)c(F)c3c2CNCC3)[C@@H](O)[C@H]1O` was run?
The GI50 was greater than 100000 nM.

What about the TGI of the same molecule?
Its TGI is greater than 100 µM.

Which results are given for `CCN1C[C@@H](C)n2c(c(O)c3c(=O)n(Cc4ccc(F)c(Cl)c4)nc(C(=O)NC)c32)C1=O`?
GI50: 2510 nM; TGI: 8.18 µM

What does the source list for `Cn1ccc(S(=O)(=O)N2CCC[C@H](Nc3nccc(-c4c(-c5cccc(O)c5)nc5occn45)n3)C2)n1`?
GI50: 8150 nM; TGI: 31.9 µM

What does the source list for `Cc1cc2c(C(C)C)c(O)c(O)c(/C=N/O)c2c(O)c1-c1c(C)cc2c(C(C)C)c(O)c(O)c(/C=N/O)c2c1O`?
GI50: 2050 nM; TGI: 6.44 µM

Which GI50 does the source give for `N#Cc1ncc(-c2ccc(C(F)(F)F)cc2)c(NC2CCCCCC2)n1` here?
The GI50 was 4160 nM.

And the TGI?
Its TGI is greater than 100 µM.

With `CC(C)N(CCNc1nc(C(Cl)(Cl)Cl)nc2cc(Cl)ccc12)C(C)C` as the molecule, how does the GI50 read?
The GI50 was 1380 nM.

What about the TGI of the same molecule?
The TGI was 2.82 µM.

Which results are given for `CCOC(=O)C(Cc1ccccc1)n1c(O)c(/C=N/c2ncc(Cc3ccc(Cl)cc3Cl)s2)sc1=S` (centres undefined)?
GI50: 2480 nM; TGI: 7.35 µM

Which results are given for `Cc1ccc(NC(=O)c2cc(/C=C/C(=O)NO)cc(C(F)(F)F)c2)cc1Nc1nccc(-c2cccnc2)n1`?
GI50: 1430 nM; TGI: 3.94 µM

How did the GI50 turn out when `CC(C)=CCc1c2c(c(O)c3c1O[C@]14C(=C[C@@H]5C[C@H]1C(C)(C)O[C@@]4(C/C=C(/C)C(=O)O)C5=O)C3=O)C=CC(C)(C)O2` was run?
The GI50 was 15800 nM.

And the TGI?
Its TGI is 35.5 µM.

Which GI50 does the source give for `Cn1cc(Nc2nccc(-c3ccc4c(c3)CN(C3COC3)CC[C@H]4NC(=O)c3cn(C(C)(C)C)nn3)n2)cn1` here?
Its GI50 is 39000 nM.

And the TGI?
Its TGI is greater than 100 µM.

Which GI50 does the source give for `C=CCc1cc(O)ccc1O` here?
The GI50 was 14000 nM.

And the TGI?
The TGI was 32.4 µM.

Which results are given for `Fc1ccc(C2CC(c3cccc(Nc4ccncc4)c3)=NN2c2ccccc2)cc1` (centres undefined)?
GI50: 1540 nM; TGI: 3.37 µM

Which GI50 does the source give for `CCN(CC)Cc1cc(Nc2ccnc3ccc(OC)cc23)ccc1O` here?
Its GI50 is 1670 nM.

What about the TGI of the same molecule?
The TGI was 4.47 µM.

For `COc1cc(C2C=C(C)N=C3SC=C(C)N32)cc(OC)c1OC` (centres undefined), which GI50 is on record?
The GI50 was 1120 nM.

What about the TGI of the same molecule?
The TGI was 2.67 µM.

What does the source list for `COC(=O)C1C(=O)C(C(=O)OC)C2CCC1N2C` (centres undefined)?
GI50: 69500 nM; TGI: > 100 µM

`Oc1ccc(/C=N/NC(=S)Nc2ccccc2)nc1` was tested. Which GI50 did it give?
Its GI50 is 1320 nM.

What about the TGI of the same molecule?
Its TGI is 4.4 µM.

How did the GI50 turn out when `Cc1c(Br)c(Br)c2c3c1nc(N1CCNCC1)n3CCC2` was run?
The GI50 was 1600 nM.

And the TGI?
The TGI was 3.31 µM.

How did the GI50 turn out when `O=C1NC(=NCCc2ccccc2F)S/C1=C\c1ccc2ncccc2c1` was run?
The GI50 was 2670 nM.

What about the TGI of the same molecule?
The TGI was greater than 18.6 µM.

Which GI50 does the source give for `C#Cc1ccc(C(=O)NCc2ccc(/C=C/C(=O)c3nccn3C)cc2)cc1` here?
Its GI50 is 2600 nM.

And the TGI?
Its TGI is 8.76 µM.

Which GI50 does the source give for `N#Cc1c(-c2ccccc2)nc(SCC(O)CN2CCOCC2)nc1N1CCOCC1` (centres undefined) here?
Its GI50 is 2160 nM.

What about the TGI of the same molecule?
The TGI was 21.5 µM.

What does the source list for `Cc1ccc(/C=C(/C#N)n2nnc3cccc(F)c32)cc1`?
GI50: 702 nM; TGI: 6.3 µM

Which results are given for `O=C(Nc1nc2ccc(OC(F)(F)F)cc2s1)c1ccc(F)cc1`?
GI50: 2360 nM; TGI: 7.36 µM

With `CC(=O)NC(CCc1ccc(Cl)c(Cl)c1)c1cccc(O)c(=O)c1` (centres undefined) as the molecule, how does the GI50 read?
Its GI50 is 442 nM.

And the TGI?
The TGI was 4.07 µM.

Which GI50 does the source give for `CN1C(=O)[C@@H](CC2CCCC2)N(C2CCCC2)c2nc(Nc3cc(Cl)c(O)c(Cl)c3)ncc21` here?
Its GI50 is 19100 nM.

What about the TGI of the same molecule?
Its TGI is 89.9 µM.

`COc1cccc(N2C(=N)/C(=C3\Nc4ccccc4S3)CC2=O)c1` was tested. Which GI50 did it give?
The GI50 was 26200 nM.

What about the TGI of the same molecule?
Its TGI is greater than 100 µM.

How did the GI50 turn out when `C/C=C(/C)C(=O)OC1C=C(CO)C(=O)C(OC(=O)C2(C)OC2C)C1C(C)C` (centres undefined) was run?
The GI50 was 1460 nM.

What about the TGI of the same molecule?
Its TGI is 3.46 µM.

`CN1CCC(=C(c2ccc(Cl)cc2)c2ccccn2)CC1` was tested. Which GI50 did it give?
The GI50 was 38900 nM.

And the TGI?
Its TGI is greater than 100 µM.

What does the source list for `Cc1cc(NS(=O)(=O)c2ccc(-c3cnc(C4CC4)o3)cc2)ccc1Cl`?
GI50: 165 nM; TGI: 12.7 µM

`COc1cc(C(=O)/C=C/c2cccnc2Nc2ccc(Cl)cc2)cc(OC)c1OC` was tested. Which GI50 did it give?
Its GI50 is 1290 nM.

And the TGI?
Its TGI is 2.67 µM.

With `CC(C)(Oc1cccc(N2CCC[C@@H](C(=O)N(Cc3ccc(-c4cn[nH]c4)cc3)C3CC3)C2)c1)C(=O)N1CCNCC1` as the molecule, how does the GI50 read?
The GI50 was 2230 nM.

And the TGI?
The TGI was 6.8 µM.

What does the source list for `Oc1c(Cl)cc(Cl)c(Cl)c1Cc1c(O)c(Cl)cc(Cl)c1Cl`?
GI50: 661 nM; TGI: 8.45 µM

With `CCNCCS(=O)(=O)NC[C@@]1(c2ccccc2)SC(NC(=O)C(C)(C)C)=NN1C(=O)C(C)(C)C` as the molecule, how does the GI50 read?
The GI50 was less than 10 nM.

Which results are given for `Cc1ccc2c(-c3ccnc(Nc4cccc(C(F)(F)F)c4)n3)c(-c3ccccc3)nn2n1`?
GI50: 509 nM; TGI: 4.58 µM

With `CCN(CC)CCOc1ccc2c(-c3ccccc3)c(-c3ccc(OC)cc3)c(=O)oc2c1` as the molecule, how does the GI50 read?
Its GI50 is 2580 nM.

What about the TGI of the same molecule?
Its TGI is 8.73 µM.

Which results are given for `CCCCNC(=O)CC1=C(C)/C(=C/c2[nH]c(-c3ccc[nH]3)cc2OC)N=C1C`?
GI50: 2040 nM; TGI: 7.5 µM
